# Measured values from PubChem BioAssay (NCI).
#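 Assay format: 96-well plates, 48-hour exposure. The concentration for 50% growth inhibition is given as GI50. Definition used: TGI = concentration required for complete inhibition of growth.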
# Tests used:
# Test in all cases: NCI-60 cell line screen, 48 h
# HOP-92 NSCLC = system: HOP-92 NSCLC
# BT-549 breast = system: BT-549 breast
# 786-0 renal = system: 786-0 renal
# LOX IMVI melanoma = system: LOX IMVI melanoma
# HCT-116 colon = system: HCT-116 colon
# IGROV1 ovarian = system: IGROV1 ovarian
# RPMI-8226 leukemia = system: RPMI-8226 leukemia
# OVCAR-8 ovarian = system: OVCAR-8 ovarian
# HOP-62 NSCLC = system: HOP-62 NSCLC
# KM12 colon = system: KM12 colon
SMILES,GI50 (HOP-92 NSCLC),TGI (HOP-92 NSCLC),GI50 (BT-549 breast),TGI (BT-549 breast),GI50 (786-0 renal),TGI (786-0 renal),GI50 (LOX IMVI melanoma),TGI (LOX IMVI melanoma),GI50 (HCT-116 colon),TGI (HCT-116 colon),GI50 (IGROV1 ovarian),TGI (IGROV1 ovarian),GI50 (RPMI-8226 leukemia),TGI (RPMI-8226 leukemia),GI50 (OVCAR-8 ovarian),TGI (OVCAR-8 ovarian),GI50 (HOP-62 NSCLC),TGI (HOP-62 NSCLC),GI50 (KM12 colon),TGI (KM12 colon)
CCCCCC(=O)O[C@]1(C(C)=O)CCC2C3CCC4=CC(=O)CC[C@]4(C)C3CC[C@@]21C (some centres undefined),0.766 µM,3.31 µM,2.49 µM,4.71 µM,2.71 µM,8.73 µM,1.67 µM,3.14 µM,1.75 µM,4.23 µM,2.7 µM,11.4 µM,1.42 µM,4.82 µM,2.61 µM,10.7 µM,3.33 µM,10.9 µM,2.24 µM,5.24 µM
CCO/C=C1\SC(=S)N(c2ccc(OCC)cc2)C1=O,,> 100 µM,,> 100 µM,,> 100 µM,,> 100 µM,,> 100 µM,,> 100 µM,,> 100 µM,,> 100 µM,,> 100 µM,,> 100 µM
CCCCS(=O)c1sc2nc(-c3cccs3)cc(-c3ccccc3)c2c1N (centres undefined),5.78 µM,66.1 µM,9.24 µM,67.9 µM,8.26 µM,> 100 µM,13 µM,> 100 µM,12.3 µM,> 100 µM,20.3 µM,> 100 µM,3.59 µM,23.7 µM,19.9 µM,> 100 µM,31.1 µM,> 100 µM,17.8 µM,> 100 µM
O=C(Nc1ccc(OC(F)(F)Cl)cc1)c1cnc(N2CC[C@@H](O)C2)c(-c2ccn[nH]2)c1,17.3 µM,41.3 µM,10.6 µM,24.7 µM,15 µM,32.8 µM,4.84 µM,18.7 µM,10.8 µM,23.9 µM,15.2 µM,41.1 µM,9.44 µM,39.9 µM,10.8 µM,54.6 µM,11.4 µM,28.4 µM,9.26 µM,24.2 µM
N#CC(C#N)=C/C=C(\Sc1ccc(Cl)cc1)c1ccc(F)cc1,0.501 µM,13.2 µM,1.16 µM,6.22 µM,0.42 µM,3.07 µM,0.403 µM,,0.0671 µM,0.508 µM,2.09 µM,12.3 µM,0.0597 µM,1.1 µM,5.89 µM,12.7 µM,2.54 µM,16 µM,0.87 µM,3.73 µM
